Measured values as given in ChEMBL document CHEMBL1201862, “PubChem BioAssay data set” (2004).
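Growth conditions: 96-well plates. Treatment: test compound, 48 hours, 5 concentrations. Analysis: linear interpolation between bracketing concentrations; unreached endpoints set to highest concentration. GI50 = concentration required for 50% inhibition of growth.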 The source made the active and inactive calls. Rule as the data show it: active = GI50 up to about 1.1 µM and inactive = higher.

How the values were obtained:
Test in all cases: growth of human tumour cells (NCI), 48 h
786-0 = tested on: 786-0
A498 = tested on: A498
A549 = tested on: A549
ACHN = tested on: ACHN
BT-549 = tested on: BT-549
CAKI-1 = tested on: CAKI-1
CCRF-CEM = tested on: CCRF-CEM
COLO 205 = tested on: COLO 205
DU-145 = tested on: DU-145
EKVX = tested on: EKVX
HCC 2998 = tested on: HCC 2998
HCT-116 = tested on: HCT-116
HCT-15 = tested on: HCT-15
HL-60 = tested on: HL-60
HOP-62 = tested on: HOP-62
HOP-92 = tested on: HOP-92
HT-29 = tested on: HT-29
Hs-578T = tested on: Hs-578T
IGROV-1 = tested on: IGROV-1
K562 = tested on: K562
LOX IMVI = tested on: LOX IMVI
M14 = tested on: M14
MCF7 = tested on: MCF7
MDA-MB-231 = tested on: MDA-MB-231
MDA-MB-435 = tested on: MDA-MB-435
MDA-N = tested on: MDA-N
MOLT-4 = tested on: MOLT-4
Malme-3M = tested on: Malme-3M
NCI-H23 = tested on: NCI-H23
NCI-H460 = tested on: NCI-H460
NCI-H522 = tested on: NCI-H522
NCI/ADR-RES = tested on: NCI/ADR-RES
OVCAR-3 = tested on: OVCAR-3
OVCAR-4 = tested on: OVCAR-4
OVCAR-5 = tested on: OVCAR-5
OVCAR-8 = tested on: OVCAR-8
PC-3 = tested on: PC-3
RXF 393 = tested on: RXF 393
SF-268 = tested on: SF-268
SF-539 = tested on: SF-539
SK-MEL-28 = tested on: SK-MEL-28
SK-MEL-2 = tested on: SK-MEL-2
SK-OV-3 = tested on: SK-OV-3
SN12C = tested on: SN12C
SNB-19 = tested on: SNB-19
SR = tested on: SR
SW-620 = tested on: SW-620
TK-10 = tested on: TK-10
U-251 = tested on: U-251
UACC-257 = tested on: UACC-257
UACC-62 = tested on: UACC-62
UO-31 = tested on: UO-31
KM12 = tested on: KM12
NCI-H226 = tested on: NCI-H226
RPMI-8226 = tested on: RPMI-8226
SF-295 = tested on: SF-295
SK-MEL-5 = tested on: SK-MEL-5
T47D = tested on: T47D

CSc1nc(Cl)c2c(n1)Sc1ncnn1C2O (stereo not drawn)
GI50 (786-0): 2.66 µM (inactive)
GI50 (A498): 20 µM (inactive)
GI50 (A549): 19.8 µM (inactive)
GI50 (ACHN): 4.29 µM (inactive)
GI50 (BT-549): 11.4 µM (inactive)
GI50 (CAKI-1): 12.7 µM (inactive)
GI50 (CCRF-CEM): 1.56 µM (inactive)
GI50 (COLO 205): 0.843 µM (active)
GI50 (DU-145): 7.08 µM (inactive)
GI50 (EKVX): 17.2 µM (inactive)
GI50 (HCC 2998): 13.6 µM (inactive)
GI50 (HCT-116): 5.12 µM (inactive)
GI50 (HCT-15): 4.37 µM
GI50 (HL-60): 0.0547 µM (active)
GI50 (HOP-62): 21.8 µM (inactive)
GI50 (HOP-92): 12.6 µM (inactive)
GI50 (HT-29): 12.9 µM (inactive)
GI50 (Hs-578T): 5.09 µM (inactive)
GI50 (IGROV-1): 18.9 µM (inactive)
GI50 (K562): 3.62 µM (inactive)
GI50 (LOX IMVI): 6.37 µM (inactive)
GI50 (M14): 14.3 µM (inactive)
GI50 (MCF7): 3.83 µM (inactive)
GI50 (MDA-MB-231): 16.1 µM (inactive)
GI50 (MDA-MB-435): 4.57 µM (inactive)
GI50 (MDA-N): 7.13 µM (inactive)
GI50 (MOLT-4): 6.7 µM (inactive)
GI50 (Malme-3M): 3.18 µM (inactive)
GI50 (NCI-H23): 14.2 µM (inactive)
GI50 (NCI-H460): 21 µM (inactive)
GI50 (NCI-H522): 2.43 µM (inactive)
GI50 (NCI/ADR-RES): 25.9 µM (inactive)
GI50 (OVCAR-3): 7.31 µM (inactive)
GI50 (OVCAR-4): 15 µM (inactive)
GI50 (OVCAR-5): 17.7 µM (inactive)
GI50 (OVCAR-8): 2.82 µM (inactive)
GI50 (PC-3): 13.6 µM (inactive)
GI50 (RXF 393): 2.58 µM (inactive)
GI50 (SF-268): 6.61 µM (inactive)
GI50 (SF-539): 0.318 µM (active)
GI50 (SK-MEL-28): 29.2 µM (inactive)
GI50 (SK-MEL-2): 17.4 µM (inactive)
GI50 (SK-OV-3): 27.3 µM (inactive)
GI50 (SN12C): 11 µM (inactive)
GI50 (SNB-19): 28 µM (inactive)
GI50 (SR): 2.86 µM (inactive)
GI50 (SW-620): 2.88 µM (inactive)
GI50 (TK-10): 17.2 µM (inactive)
GI50 (U-251): 14.9 µM (inactive)
GI50 (UACC-257): 19.5 µM (inactive)
GI50 (UACC-62): 12.6 µM (inactive)
GI50 (UO-31): 2.55 µM (inactive)

O=c1oc2ccccc2c2c1Sc1ccccc1N2
GI50 (786-0): > 100 µM (inactive)
GI50 (A498): > 100 µM (inactive)
GI50 (A549): > 10 µM (inactive)
GI50 (ACHN): > 100 µM (inactive)
GI50 (BT-549): > 100 µM (inactive)
GI50 (CAKI-1): > 100 µM (inactive)
GI50 (CCRF-CEM): 75.9 µM (inactive)
GI50 (COLO 205): > 100 µM (inactive)
GI50 (DU-145): > 100 µM (inactive)
GI50 (EKVX): 62.2 µM (inactive)
GI50 (HCC 2998): 53 µM (inactive)
GI50 (HCT-116): 89.3 µM (inactive)
GI50 (HCT-15): 36.2 µM
GI50 (HL-60): > 100 µM (inactive)
GI50 (HOP-62): > 100 µM (inactive)
GI50 (HOP-92): 12.7 µM (inactive)
GI50 (HT-29): > 100 µM (inactive)
GI50 (Hs-578T): > 100 µM (inactive)
GI50 (IGROV-1): > 100 µM (inactive)
GI50 (K562): > 100 µM (inactive)
GI50 (KM12): 70.5 µM (inactive)
GI50 (LOX IMVI): > 100 µM (inactive)
GI50 (M14): > 100 µM (inactive)
GI50 (MCF7): 71.3 µM (inactive)
GI50 (MDA-MB-231): 85.5 µM (inactive)
GI50 (MDA-MB-435): 96.4 µM (inactive)
GI50 (MOLT-4): 63.4 µM (inactive)
GI50 (NCI-H226): 82.4 µM (inactive)
GI50 (NCI-H23): 74.8 µM (inactive)
GI50 (NCI-H460): 92.9 µM (inactive)
GI50 (NCI-H522): > 100 µM (inactive)
GI50 (NCI/ADR-RES): > 100 µM (inactive)
GI50 (OVCAR-3): 68.9 µM (inactive)
GI50 (OVCAR-4): 22.8 µM (inactive)
GI50 (OVCAR-5): > 100 µM (inactive)
GI50 (OVCAR-8): > 100 µM (inactive)
GI50 (PC-3): > 100 µM (inactive)
GI50 (RPMI-8226): 47.2 µM (inactive)
GI50 (RXF 393): 64.9 µM (inactive)
GI50 (SF-268): 56.6 µM (inactive)
GI50 (SF-295): > 100 µM (inactive)
GI50 (SF-539): > 100 µM (inactive)
GI50 (SK-MEL-28): > 100 µM (inactive)
GI50 (SK-MEL-2): 2.58 µM (inactive)
GI50 (SK-MEL-5): 48.9 µM (inactive)
GI50 (SN12C): > 100 µM (inactive)
GI50 (SNB-19): > 100 µM (inactive)
GI50 (SR): 53.6 µM (inactive)
GI50 (SW-620): > 100 µM (inactive)
GI50 (T47D): 0.897 µM (active)
GI50 (TK-10): > 100 µM (inactive)
GI50 (U-251): 58.3 µM (inactive)
GI50 (UACC-257): > 100 µM (inactive)
GI50 (UACC-62): 50.1 µM (inactive)
GI50 (UO-31): > 100 µM (inactive)

CCOC(=O)c1[nH]c2cccc3c2c1CC(Br)C3=O (stereo not drawn)
GI50 (786-0): 4.72 µM (inactive)
GI50 (A498): 17.7 µM (inactive)
GI50 (A549): 17.3 µM (inactive)
GI50 (ACHN): 6.98 µM (inactive)
GI50 (BT-549): 16.9 µM (inactive)
GI50 (CAKI-1): 11.2 µM (inactive)
GI50 (CCRF-CEM): 3.83 µM (inactive)
GI50 (COLO 205): 14 µM (inactive)
GI50 (DU-145): 16.1 µM (inactive)
GI50 (EKVX): 17.5 µM (inactive)
GI50 (HCC 2998): 14.7 µM (inactive)
GI50 (HCT-116): 2.48 µM (inactive)
GI50 (HCT-15): 3.72 µM
GI50 (HL-60): 2.94 µM (inactive)
GI50 (HOP-62): 19 µM (inactive)
GI50 (HOP-92): 16.7 µM (inactive)
GI50 (HT-29): 20 µM (inactive)
GI50 (IGROV-1): 5.86 µM (inactive)
GI50 (KM12): 15.8 µM (inactive)
GI50 (LOX IMVI): 15.7 µM (inactive)
GI50 (M14): 13.4 µM (inactive)
GI50 (MCF7): 22.5 µM (inactive)
GI50 (MDA-MB-231): 18.5 µM (inactive)
GI50 (MDA-MB-435): 11.7 µM (inactive)
GI50 (MDA-N): 11.6 µM (inactive)
GI50 (MOLT-4): 2.71 µM (inactive)
GI50 (Malme-3M): 14.5 µM (inactive)
GI50 (NCI-H226): 17.4 µM (inactive)
GI50 (NCI-H23): 17.6 µM (inactive)
GI50 (NCI-H460): 22.3 µM (inactive)
GI50 (NCI/ADR-RES): 15.3 µM (inactive)
GI50 (OVCAR-3): 13.2 µM (inactive)
GI50 (OVCAR-5): 19 µM (inactive)
GI50 (OVCAR-8): 16.6 µM (inactive)
GI50 (PC-3): 15.1 µM (inactive)
GI50 (RPMI-8226): 5.02 µM (inactive)
GI50 (SF-268): 15.6 µM (inactive)
GI50 (SF-295): 17.2 µM (inactive)
GI50 (SF-539): 16.4 µM (inactive)
GI50 (SK-MEL-28): 20 µM (inactive)
GI50 (SK-MEL-5): 18.5 µM (inactive)
GI50 (SK-OV-3): 22.7 µM (inactive)
GI50 (SN12C): 16.7 µM (inactive)
GI50 (SNB-19): 15.7 µM (inactive)
GI50 (SR): 2.14 µM (inactive)
GI50 (SW-620): 2.34 µM (inactive)
GI50 (T47D): 15.9 µM (inactive)
GI50 (TK-10): 14.6 µM (inactive)
GI50 (U-251): 14.9 µM (inactive)
GI50 (UACC-257): 14.4 µM (inactive)
GI50 (UO-31): 6.21 µM (inactive)
